Source: patent publication US20070292888A1, “Methods for Measuring Enzyme Activities in Cells, Blood, Tumors and Tissues” (GEN-PATH PHARMACEUTICALS, INC., priority 2004, published 2007)

Target: T1, transketolase (TK) (Mus musculus, UniProt P40142)
T1 construct: from tissue; host or cells: mouse blood, spleen, tumor, kidney, lung, liver (crude lysates)
T1 sequence (P40142 1-623): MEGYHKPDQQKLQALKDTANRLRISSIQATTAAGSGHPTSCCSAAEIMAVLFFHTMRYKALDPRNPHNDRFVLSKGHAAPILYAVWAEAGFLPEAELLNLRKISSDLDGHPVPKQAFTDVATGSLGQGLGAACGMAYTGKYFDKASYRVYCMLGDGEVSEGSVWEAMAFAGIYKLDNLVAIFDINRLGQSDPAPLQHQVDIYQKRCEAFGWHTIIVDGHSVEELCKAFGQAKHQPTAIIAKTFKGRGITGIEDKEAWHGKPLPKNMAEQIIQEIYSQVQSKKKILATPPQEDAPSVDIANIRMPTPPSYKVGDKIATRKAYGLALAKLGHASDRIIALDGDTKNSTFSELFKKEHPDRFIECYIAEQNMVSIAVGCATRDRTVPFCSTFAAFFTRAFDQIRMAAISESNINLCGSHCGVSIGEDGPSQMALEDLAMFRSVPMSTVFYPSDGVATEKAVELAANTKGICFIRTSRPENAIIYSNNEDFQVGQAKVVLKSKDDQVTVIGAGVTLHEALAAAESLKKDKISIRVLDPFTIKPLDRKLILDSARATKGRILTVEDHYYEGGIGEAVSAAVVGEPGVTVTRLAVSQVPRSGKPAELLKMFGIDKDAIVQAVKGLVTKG
Experiment: Transketolase activity in blood, tumors and tissues of treated mice (fluorescence NADH assay)
Format: in vivo
Description: Blood samples from mice were taken (40 μl whole blood) serially or from mice sacrificed at the end of the experiment. Tissues, such as tumors (e.g. from implantation, xenograft, or arising spontaneously), brain, heart, kidney, liver, lung and spleen were taken and flash frozen in liquid nitrogen or on dry ice and stored in −80° C. until time of assay. Four volumes of cold lysis buffer (20 mM HEPES, pH 7.5, 1 mM EDTA, 0.2 g/l Triton X-100® and 0.2 g/L sodium deoxycholate, supplemented with 1 mM DTT and 1 mM PMSF just before use) were added to the blood, which was dissolved by vortexing. For blood that was frozen before coagulation, a clear lysate was obtained. If coagulation occurred, homogenization was used as described below for tissue. Tissues were suspended in lysis buffer in 10 ml round bottom tubes and homogenized with PowerGen 125® (Fisher Scientific) for four seconds at highest power while submerged in an ice-water bath. This step was repeated after a few seconds, as necessary. The lysate was used right away or else flash frozen and stored at −80° C. until assay time. Eighty microliters (80 μl) of lysate (containing 5 mg tissue/ml lysate for TK and kGDH, 0.5 mg/ml for G6PDH) were put directly in individual wells of a 96-well clear-bottomed assay plate. Twenty microliters (20 μl) of 5× reaction mix was added to initiate each enzymatic reaction.
Each reaction was monitored for the appearance of NADH (for transketolase, alpha-ketoglutarate dehydrogenase, pyruvate dehydrogenase) or NADPH (for glucose-6-phosphate dehydrogenase) at room temperature in a fluorescent plate reader with excitation at 340 nm and emission at 470 nm in kinetic mode. The velocity was determined by the slope of the initial linear range of increasing fluorescence, expressed in fluorescent units (FU)/min. The protein concentration in the lysate was determined using Bradford assays (BioRad) with BSA as a standard. The enzymatic velocity was normalized by the total protein concentration for inter-sample comparison. To obtain reliable results across samples, similar starting protein concentrations were prepared (within approximately 30%) so that the normalized velocity required only small adjustments. This was achieved by weighing the tissue and putting in lysis buffer so that the suspensions contained the same amount of tissue/ml lysis buffer for all samples.
For TK, 15 μl of 5× assay buffer containing final concentrations of 50 mM HEPES, 40 mM KCl, 2.5 mM MgCl2, 5 mM NaArsenate, 1 mM NAD, 2 unit/ml glyceraldehydes-3-phosphate dehydrogenase (GAPDH) was added to 80 μl of lysate. Reaction kinetics were monitored on a fluorescent plate reader to allow any possible background activity via GAPDH to burn out. Then 5 μl of substrate mix containing final concentrations of 0.5 mM ribose-5-phosphate and 0.5 mM xylulose-5-phosphate was added to initiate the reaction. The reaction kinetics were monitored using a fluorescent plate reader, and the slope of the initial linear range was recorded as the velocity of the reaction (FU/min). See FIG. 1 for the reaction scheme.
To investigate the amount of in vivo enzyme inhibition following treatment with an inhibitor, we administered a single dose of N3PT (100 mg/kg, intraperitoneally [i.p.]) and blood, spleen and brain samples were collected at various times from 0-120 hours after dosing. The enzymatic activities were determined as described in Example 1. TK activity was measured in blood and spleen. Because TK activity in the brain is below the detection limit of the assay, kGDH activity was measured in brain samples. Measurements were taken at various time intervals
We measured enzyme activity in an expanded panel of tissues from mice treated with N3PT or OxyT for 11 days i.p., twice per day. Samples were taken from tumors, blood, brain, heart, kidney, lung and spleen, and TK, kGDH and G6PDH activities were determined as described above.

percent inhibition of TK activity in tumors (11 days i.p. twice per day, 100 mg/kg, compared to vehicle control): 70% | liver enzymatic (TK) activity (11 days i.p. twice per day, liver): hardly affected | Inhibition of transketolase activity in the spleen (single dose 100 mg/kg i.p., 8-24 hours post-treatment): up to 35% | Transketolase inhibition at 1 hour post-treatment (single dose 100 mg/kg i.p., 1 hour post-treatment): detectable | Transketolase inhibition at the final sampling at 120 hours (single dose 100 mg/kg i.p., 120 hours (5 days)): still evident | inhibition of transketolase activity in the blood (single dose N3PT 100 mg/kg i.p., at the nadir (12 hours)): 80%
Compound: Cc1ccc(C[n+]2csc(CCO)c2C)c(N)n1 [N3PT, 3-[(2-amino-6-methyl-3-pyridinyl)methyl]-5-(2-hydroxyethyl)-4-methyl thiazolium]
